Test results taken from patent publication US8389739B1, “Modulators of retinoid-related orphan receptor gamma” (Orphagen Pharmaceuticals, priority 2006, dated 2013).
Like-named read-outs stand apart in the source and are kept apart here.

How the values were obtained:
mRORγ = biological target: T1, mRORγ (Mus musculus, UniProt P51450); assay: Transcriptional assay, Gal4-mRORγ with luciferase reporter in CHO cells; type: cell-based
T1 construct: expressed in transfected cells; host or cells: CHO cells, transient transfection
T1 sequence (P51450 with tags, fused parts or gaps): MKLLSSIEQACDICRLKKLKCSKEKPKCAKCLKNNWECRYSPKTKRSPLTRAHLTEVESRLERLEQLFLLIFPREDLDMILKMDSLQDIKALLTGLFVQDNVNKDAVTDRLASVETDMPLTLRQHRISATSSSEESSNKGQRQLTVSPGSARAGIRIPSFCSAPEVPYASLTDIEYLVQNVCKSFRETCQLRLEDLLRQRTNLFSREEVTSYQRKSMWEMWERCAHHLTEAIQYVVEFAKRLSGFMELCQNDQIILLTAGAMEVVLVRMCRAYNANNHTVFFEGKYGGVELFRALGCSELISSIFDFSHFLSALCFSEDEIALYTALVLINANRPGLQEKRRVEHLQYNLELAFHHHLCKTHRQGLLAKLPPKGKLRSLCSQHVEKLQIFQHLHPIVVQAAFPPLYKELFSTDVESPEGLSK
Description: The complete Gal4-mRORγ nucleotide sequence is shown below:
(§1) A firefly luciferase reporter gene for Gal4 DBD hybrid receptors, such as Gal4-RORγ, contains five copies of the Gal4 17-mer response element in its promoter and the coding sequence for firefly luciferase (pG5-luc, Promega). CHO (Chinese Hamster Ovary) cells were cultured in Ham's F12 medium supplemented with 10% fetal calf serum (Gemini Biologicals), 10 μg/ml penicillin and streptomycin, and were maintained in a humidified 37° C. incubator (Thermo Electron, Steri-Cycle) with 5% CO2. 24 hours before transfection, cells were plated in T175 flasks (5×10^6 cells/flask) or T75 flasks (1.7×10^6 cells/flask). Transient transfection of CHO cells was performed using TransIT-CHO reagents (Minis, Madison, Wis.) with a mixing ratio of 2:6:1 between plasmid DNA (in μg), TransIT-CHO (in μl) and CHO-mojo (in μl).
(§2) Plates are maintained at 37° C. in a humidified atmosphere with 7% CO2 overnight. Four (4) hours after cell seeding, compounds dissolved in DMSO at 10 mM were added to cells at final concentrations of 20 micromolar (μM) to 20 nanomolar (nM) in 0.2% DMSO in triplicate plates. Approximately 40 hours later, cytotoxicity in the assay well was characterized by addition of the dye resazurin (O'Brien, Wilson et al. 2000) to a final concentration of 3 μM. […] Percent viability was determined as 2 hour fluorescence, minus background at t=0 hours, normalized to DMSO controls. For detection of luciferase activity, media was removed from plates after the measurement of resazurin conversion, and SteadyLite luciferase reagent (Perkin-Elmer) was added (30 μl/well). Luminescence is detected with a Victor 2-V plate reader (Perkin-Elmer) and normalized to luciferase activity of DMSO control wells alone.

mRORγ LBD = biological target: T2, mRORγ LBD (Mus musculus, UniProt P51450); assay: Biochemical assay, coregulatory peptide recruitment to GST-RORγ LBD (FRET)
T2 construct: made in house; host or cells: Sf9 insect cells, baculovirus; cleared lysate used directly
T2 sequence (P51450 251-516): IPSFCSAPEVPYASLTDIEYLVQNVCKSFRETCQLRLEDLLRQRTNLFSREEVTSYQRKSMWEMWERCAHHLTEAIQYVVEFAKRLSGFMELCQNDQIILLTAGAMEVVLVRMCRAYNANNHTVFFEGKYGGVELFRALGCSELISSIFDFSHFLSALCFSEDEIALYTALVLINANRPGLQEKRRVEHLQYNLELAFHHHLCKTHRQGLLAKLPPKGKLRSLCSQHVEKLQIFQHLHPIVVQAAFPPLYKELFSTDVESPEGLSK
Excerpt: GST-RORγ was generated by subcloning the RORγ-LBD into pET-41a, a vector which expresses GST fusion proteins in bacteria.
The cloning steps for GST-RORγ were as follows. The mRORγ LBD was excised from Gal4-mRORγ (see above for cloning steps) at BamHI and HindIII sites of Sequence 1 and cloned into the corresponding sites of pET-41a(+) (EMD Biosciences, San Diego, Calif.). A GST-mRORγ fragment was then excised from pET-41a(+) at XbaI and XhoI sites and cloned into a pcDNA3.1vector (Invitrogen, Carlsbad, Calif.) restricted at NheI and XhoI sites. Plasmid GST-mRORγ-pcDNA3.1 was used as a PCR template to generate a GST-mRORγ fragment that was later cloned into pENTR/D-TOPO vector (Invitrogen, Carlsbad, Calif.) by standard cloning techniques recommended by the manufacturer of the vector. The nucleotide sequence of GST-mRORγ is shown below:
For baculoviral expression of RORγ, the cDNA fragment of GST-RORγ— LBD, was subcloned from pET-41a into the pENTR/D-TOPO vector using a commercially-available kit (BaculoDirect, Invitrogen). Briefly, GST-RORγ carried by pENTR/D-TOPO was transfected into mono-layer Sf9 cells (8×10^5/well in 6-well plates) by Cellfectin (Invitrogen). Sf9 cells were incubated at 27° C. in a non-humidified incubator for 72 hours. Cell media was collected as P1 viral stock and used to further infect Sf9 cells to generate P2 and P3 virus. […] A plaque assay was performed to determine the titer of P3 virus and to isolate single plaques. P4 virus was generated from a single plaque and propagated on a larger scale.
Adherent SF9 cells were infected with baculovirus carrying GST-RORγ and were cultured for 72 hours. Sf9 cell were then subject to a brief sonication in a lysis buffer (20 mM phosphate, pH 6.8, 50 mM KCl, 50 mM NaCl, 0.5 mM EDTA, 50% glycerol, 0.001% NP-40 and 1 mM DTT) and centrifuged at 3000 rpm for 15 minutes. […] Cleared cell lysate was stored at −70° C. and is directly utilized in the coregulatory peptide recruitment assay.
The labeled probes anti-GST-APC and SA-RPE were purchased from Prozyme (San Leandro, Calif.). Compounds were added directly from a DMSO solution to a final concentration of 1-2% DMSO. Fluorescence was measured on a Wallac Victor 2 V plate reader equipped with a 670/40 nm filter (Omega Optical, Brattleboro, Vt.) for APC emission (Channel A) and a 600/25 bandpass filter for monitoring the RPE emission (Channel B).

human RORγ = biological target: T3, human RORγ (Homo sapiens, UniProt P51449); assay: Transcriptional assay of human RORγ (Gal4-hRORγ); type: cell-based; conditions: Table 4B
T3 construct: expressed in transfected cells; host or cells: CHO cells, transient transfection
T3 sequence (P51449 253-518): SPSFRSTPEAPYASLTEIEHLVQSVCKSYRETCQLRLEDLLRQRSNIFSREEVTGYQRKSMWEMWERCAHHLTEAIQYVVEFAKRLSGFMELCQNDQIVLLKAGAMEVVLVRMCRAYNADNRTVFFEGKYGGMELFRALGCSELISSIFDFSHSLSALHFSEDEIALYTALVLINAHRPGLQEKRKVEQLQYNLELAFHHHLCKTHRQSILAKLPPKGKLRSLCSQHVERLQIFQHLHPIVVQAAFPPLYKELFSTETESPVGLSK
Description: The complete Gal4-hRORγ nucleotide sequence is shown below:
as §1, §2

[1] = tested on: TH-17 cell differentiation from naïve CD4+ T cells; assay: Differentiation of naïve CD4+ T cells, intracellular IL-17/IFN-γ staining by FACS (TH-17 protocol, TGFβ + IL-6); type: cell-based, mouse; conditions: Table 8, naïve CD4 cells, 5 days, mean ±SD
[2] = biological target: T4, hPR (progesterone receptor) (Homo sapiens, UniProt P06401); assay: Crossreactive receptor transcriptional assay (Gal4 hybrid); type: cell-based; conditions: activity of standard ligand at 20 μM
T4 construct: 687-933; expressed in transfected cells; host or cells: CHO cells, transient transfection
T4 sequence (P06401 687-933): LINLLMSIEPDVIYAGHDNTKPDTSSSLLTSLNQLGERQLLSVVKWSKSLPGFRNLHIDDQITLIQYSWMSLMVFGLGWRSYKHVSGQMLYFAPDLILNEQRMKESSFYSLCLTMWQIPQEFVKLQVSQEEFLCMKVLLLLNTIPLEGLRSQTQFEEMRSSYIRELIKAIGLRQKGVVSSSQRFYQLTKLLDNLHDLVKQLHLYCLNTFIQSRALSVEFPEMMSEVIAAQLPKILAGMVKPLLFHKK
Description: as §1, §2

[3] = biological target: T5, mLXRα (Liver X receptor alpha) (Mus musculus, UniProt Q9Z0Y9); assay: Transcriptional assay of LXRα (Gal4-LXRα hybrid); type: cell-based
T5 construct: 172-455; expressed in transfected cells; host or cells: CHO cells, transient transfection
T5 sequence (Q9Z0Y9 172-445 limits assumed): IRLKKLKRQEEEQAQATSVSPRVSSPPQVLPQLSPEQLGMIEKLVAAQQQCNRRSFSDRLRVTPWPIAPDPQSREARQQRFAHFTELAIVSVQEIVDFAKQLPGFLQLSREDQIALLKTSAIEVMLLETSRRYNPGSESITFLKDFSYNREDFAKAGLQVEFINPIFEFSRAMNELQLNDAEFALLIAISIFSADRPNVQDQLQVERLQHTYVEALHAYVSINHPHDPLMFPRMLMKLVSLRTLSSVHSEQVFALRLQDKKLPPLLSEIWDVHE
Description: as §1, §2
A transcriptional assay for LXRα, using a Gal4-LXRα hybrid, was implemented in order to compare RORγ ligand potencies. In addition to LXRα, transcriptional assays for a number of other major nuclear receptors were developed.

hPPARα = biological target: T6, hPPARα (Homo sapiens, UniProt Q07869); assay: Crossreactive receptor transcriptional assay (Gal4 hybrid); type: cell-based; conditions: activity of standard ligand at 20 μM
T6 construct: 166-468; expressed in transfected cells; host or cells: CHO cells, transient transfection
T6 sequence (Q07869 166-468): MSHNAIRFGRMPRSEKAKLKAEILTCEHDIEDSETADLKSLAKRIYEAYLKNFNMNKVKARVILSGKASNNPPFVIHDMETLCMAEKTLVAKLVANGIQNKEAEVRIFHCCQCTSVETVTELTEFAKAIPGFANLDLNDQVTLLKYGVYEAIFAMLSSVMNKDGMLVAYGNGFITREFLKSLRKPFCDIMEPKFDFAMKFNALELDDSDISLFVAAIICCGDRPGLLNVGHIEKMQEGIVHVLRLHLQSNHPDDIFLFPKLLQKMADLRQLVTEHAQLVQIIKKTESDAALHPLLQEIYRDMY
Description: as §1, §2

[4] = Table 4A, medians of two or more assays, unit inferred, read-out: EC50 Transcriptional
[5] = Table 4A, peptide K1, no agonist present, medians of two or more assays, unit inferred, read-out: EC50 Biochemical
[6] = Table 1, antagonists, inhibition of basal Gal4-mRORγ transcription in CHO cells, read-out: Assay EC50 in micromolar at mRORγ Transcriptional
[7] = Table 7, taken from Table 1, read-out: Assay EC50 in micromolar at mRORγ Transcriptional
[8] = Table 1, mRORγ and peptide K1, read-out: Assay EC50 in micromolar at mRORγ Biochemical
[9] = Table 7, taken from Table 1 (peptide K1), read-out: Assay EC50 in micromolar at mRORγ Biochemical
[10] = Table 7, no unit printed for this column (b114 gives 1.5 μM for OR-1050), read-out: Transcriptional Assay of LXRα EC50

## CCn1c(CNc2cccc(Cl)c2)nnc1SCC(=O)Nc1cccc2ccccc12 [OR-133097, 2-{5-[(3-Chloro-phenylamino)-methyl]-4-ethyl-4H-[1,2,4]triazol-3-ylsulfanyl}N-naphthalen-1-yl-acetamide]
mRORγ; [4]
  EC50: 1.44 µM
mRORγ LBD; [5]
  EC50: 1.34 µM
Human RORγ
  EC50: 5 µM

## CCn1c(CNc2ccc(C)c(Cl)c2)nnc1SCC(=O)Nc1cccc2ccccc12 [OR-133171, 2-{5-[(3-Chloro-4-methyl-phenylamino)-methyl]-4-ethyl-4H-[1,2,4]triazol-3-ylsulfanyl}N-naphthalen-1-yl-acetamide]
mRORγ; [4]
  EC50: 0.49 µM
mRORγ LBD; [5]
  EC50: 0.44 µM
Human RORγ
  EC50: 1.7 µM

## IL-6: exogenous cytokine used for TH-17 differentiation
[1]; 20 ng/ml
  IL-17 (%): 1.20 ± 0.04%

## CC(=O)[C@H]1CC[C@H]2[C@@H]3CCC4=CC(=O)CC[C@]4(C)[C@H]3CC[C@]12C [Progesterone, progesterone, reference compound]
[2]
  Efficacy at hPR: 6X

## CCN(c1ccc(C(OC)(C(F)(F)F)C(F)(F)F)cc1)S(=O)(=O)c1ccccc1 [OR-1030, N-Ethyl-N-[4-(2,2,2-trifluoro-1-methoxy-1-trifluoromethyl-ethyl)-phenyl]-benzenesulfonamide]
mRORγ; [6]
  EC50: > 20 µM
mRORγ; [7]
  EC50: > 20 µM
mRORγ LBD; [8]
  EC50: > 100 µM
mRORγ LBD; [9]
  EC50: > 100 µM
[3]
  Emax: < 5%
[3]; [10]
  EC50: > 100000 nM

## Cc1cccc(Nc2cc(Cl)nc(SCC(=O)O)n2)c1C [WY14643, reference compound]
hPPARα
  Efficacy at hPPARα: 6X

## TGFβ1: exogenous cytokine used for TH-17 differentiation
[1]; 4 ng/ml
  IL-17 (%): 0.21 ± 0.02%

## CCN(c1ccc(C(O)(C(F)(F)F)C(F)(F)F)cc1)S(=O)(=O)c1ccccc1 [OR-1031, N-Ethyl-N-[4-(2,2,2-trifluoro-1-hydroxy-1-trifluoromethyl-ethyl)-phenyl]-benzenesulfonamide]
mRORγ; Assay EC50 in micromolar at mRORγ Transcriptional, Table 1, antagonists, inhibition of basal Gal4-mRORγ transcription in CHO cells
  EC50: 1.4 µM
mRORγ; Assay EC50 in micromolar at mRORγ Transcriptional, Table 7, taken from Table 1
  EC50: 1.4 µM
mRORγ LBD
  EC50: 3.5 µM
[3]
  EC50: 1400 nM
  Emax: > 80%

## Cn1c(CNc2cccc(Cl)c2)nnc1SCC(=O)Nc1cccc2ccccc12 [OR-133167, 2-{5-[(3-Chloro-phenylamino)-methyl]-4-methyl-4H-[1,2,4]triazol-3-ylsulfanyl}N-naphthalen-1-yl-acetamide]
mRORγ; [4]
  EC50: 3.3 µM
mRORγ LBD; [5]
  EC50: 3.4 µM
Human RORγ
  EC50: 9.4 µM

## CCn1c(CNc2cccc(C(F)(F)F)c2)nnc1SCC(=O)Nc1cccc2ccccc12 [OR-133099, 2-{4-Ethyl-5-[(3-trifluoromethyl-phenylamino)-methyl]-4H-[1,2,4]triazol-3-ylsulfanyl}N-naphthalen-1-yl-acetamide]
mRORγ; [4]
  EC50: 1.04 µM
mRORγ LBD; [5]
  EC50: 1.33 µM
Human RORγ
  EC50: 2.4 µM

## CCN(c1ccc(C(O)(C(F)(F)F)C(F)(F)F)cc1)S(=O)(=O)c1ccc(C)cc1 [OR-1052, N-Ethyl-4-methyl-N-[4-(2,2,2-trifluoro-1-hydroxy-1-trifluoromethyl-ethyl)-phenyl]-benzenesulfonamide]
mRORγ; [6]
  EC50: 0.21 µM
mRORγ; [7]
  EC50: 0.21 µM
mRORγ LBD; [8]
  EC50: 0.89 µM
mRORγ LBD; [9]
  EC50: 0.89 µM
[3]
  Emax: > 80%
[3]; [10]
  EC50: 810 nM
[3]; comparison of transcriptional assays for RORγ and LXRα (Table 7)
  specificity for RORγ versus LXRα: more specific for RORγ than LXRα
